Results published in PubChem BioAssay AID1963974 (Molecular Pharmacology Branch, DTP, NCI, 2024).
Several values for one entry are separate records, joined by “and”; a condition that tells them apart may be missing. Equal entries are not always repeated.

System: 648629-189-R-J1-PDC spheroids with HUVEC/MSC, viability
Test: Anticancer human tumor 648629-189-R-J1-PDC patient-derived bladder carcinoma cell line growth inhibition [PI3K]
Settings: for viability, T/C: stronger effect = lower value
Description: Combinatorial screen of targeted agents with the PI3K inhibitors inavolisib, alpelisib, duvelisib, and copanlisib in multi-cell type tumor spheroids
A high-throughput screen of multi-cell type tumor spheroids was designed to identify active combinations of targeted small molecules and PI3K pathway inhibitors. Complex spheroids include a stromal component modeled by human endothelial cells (HUVEC) and fibroblasts modeled by human mesenchymal stem cells (MSCs). The concentration ranges selected for each drug and investigational agent were based upon clinically achievable concentrations if the clinical Cmax of the agent was known.
Compounds. The drugs and investigational agents: inavolisib (NSC800729), alpelisib (NSC765974), duvelisib (NSC772469), copanlisib (NSC816437), ipatasertib (NSC767898), afuresertib (NSC778305), talazoparib (NSC767125), sapanisertib (NSC764658), selumetinib (NSC741078), tovorafenib (DAY101, NSC766906), vemurafenib (NSC761431), ravoxertinib (NSC781343), sotorasib (NSC818433), MRTX1133 (NSC 836407), abemaciclib (NSC 768073), palbociclib (NSC758247), venetoclax (NSC 766270), SY5609 (NSC837396), enzalutamide (NSC755605), and darolutamide (NSC825331), were obtained from the National Cancer Institute (NCI) Developmental Therapeutics Program Chemical Repository. The FDA-approved anticancer drug set is available from the NCI Developmental Therapeutics Program. […] The stock solutions were prepared in dimethyl sulfoxide (DMSO, Sigma-Aldrich, St. Louis, MO, cat. D2650) at 800-fold the tested concentration and stored at -70 degrees C prior to their use. All drugs and investigational agents were tested over a range starting from a high concentration at or near the clinical Cmax and decreasing in half-log increments. If the clinical Cmax for an agent had not been determined, the highest concentration tested was 10 microM.
Cell Culture. All cells were maintained in an incubator at 37 degrees C and 5% CO2 with 95% humidity. The PDC lines were cultured according to standard operating procedures established by the NCI PDMR (https://pdmr.cancer.gov/sops/default.htm). All PDCs were thawed and cultured in Matrigel-coated flasks prepared with a working solution of 1X Ham's F-12 nutrient mix, without supplementation (Invitrogen, Waltham, MA, cat. 11765054), 100 U/mL penicillin-streptomycin (Invitrogen, cat. 15140122), and 2.5% Matrigel (Corning Inc., Corning, NY, cat. 354248) for the first three passages. The 354836-022-R-J1-PDC, 475296-252-R-J1-PDC, and 997726-040-R-J2-PDC lines were cultured in 6A media, which includes advanced DMEM/F-12 (Thermo Fisher Scientific, cat. 12634028), 10 mM HEPES (Thermo Fisher Scientific, cat. 15630080), 1X GlutaMAX supplement (Thermo Fisher Scientific, cat. 35050061), 0.1 mg/mL primocin (InvivoGen, San Diego, CA, cat. ant-pm-2), 10% defined fetal bovine serum, heat inactivated (HyClone Laboratories Inc., Logan, UT, cat. SH30070.03HI), 50% L-WRN conditioned media (ATCC, cat. CRL-3276), 1.25 mM N-Acetyl-L-cysteine (Sigma-Aldrich, cat. A9165), 10 mM nicotinamide (Sigma-Aldrich, cat. N0636), 1X B-27 supplement (Thermo Fisher Scientific, cat. 17504044), 1X N-2 supplement (Thermo Fisher Scientific, cat. 17502048), and 10 microM Y-27632 dihydrochloride (Tocris Bioscience, Bristol, United Kingdom, cat. 1254). The 624824-186-R-J2-PDC line was cultured in 6C/Colon 1B media, which includes all 6A media components plus 50 ng/mL human EGF recombinant protein (Thermo Fisher Scientific, cat. PHG0311). […]
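Also: spheroids exposed to agents for seven days before reading.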
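For viability, T/C in this document: percent of vehicle control luminescence where 100% = DMSO treated spheroids.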

## C#Cc1c(F)ccc2cc(O)cc(-c3ncc4c(N5CC6CCC(C5)N6)nc(OCC56CCCN5CC(F)C6)nc4c3F)c12 (stereo unspecified)
Compound 0.0316 µM
  viability, T/C: 105% [middle of 4 runs]
Compound 0.316 µM
  viability, T/C: 111% and 104% (2×) and 105%
Compound 1 µM
  viability, T/C: 104% [middle of 4 runs]
Compound 3.16 µM
  viability, T/C: 107% [middle of 4 runs]
Compound 10 µM
  viability, T/C: 108% and 105% (2×) and 101%
Curve of compound
  IC50: > 10 µM

## C=CC(=O)N1CCN(c2nc(=O)n(-c3c(C)ccnc3C(C)C)c3nc(-c4c(O)cccc4F)c(F)cc23)C(C)C1 (stereo unspecified)
Compound 0.0316 µM
  viability, T/C: 112% [middle of 4 runs]
Compound 0.1 µM
  viability, T/C: 103% (2×) and 102% and 99.5%
Compound 0.316 µM
  viability, T/C: 110% and 107% (2×) and 100%
Compound 1 µM
  viability, T/C: 109% [middle of 4 runs]
Compound 3.16 µM
  viability, T/C: 105% [middle of 4 runs]
Compound 10 µM
  viability, T/C: 96% [middle of 4 runs]
Curve of compound
  IC50: > 10 µM

## Cn1ncc(Cl)c1-c1cc(C(=O)NC(CN)Cc2cccc(F)c2)sc1Cl (stereo unspecified)
Compound 0.0316 µM
  viability, T/C: 111% [middle of 4 runs]
Compound 0.1 µM
  viability, T/C: 86.8% [middle of 4 runs]
Compound 0.316 µM
  viability, T/C: 72.9% [middle of 4 runs]
Compound 1 µM
  viability, T/C: 35.3% [middle of 4 runs]
Compound 3.16 µM
  viability, T/C: 25% [middle of 4 runs]
Curve of compound
  IC50: 818 nM [middle of 4 runs]

## CNC(=O)c1ccc(N2C(=S)N(c3ccc(C#N)c(C(F)(F)F)c3)C(=O)C2(C)C)cc1F + CC(Nc1ccc2c(c1)OCCn1cc(N3C(=O)OCC3C(F)F)nc1-2)C(N)=O
Curve of first compound, second compound 0.00316 µM
  IC50: > 10 µM
Curve of first compound, second compound 0.01 µM
  IC50: > 10 µM
Curve of first compound, second compound 0.0316 µM
  IC50: > 10 µM
Curve of first compound, second compound 0.1 µM
  IC50: > 10 µM
Curve of first compound, second compound 0.316 µM
  IC50: > 10 µM
Curve of first compound, second compound 1 µM
  IC50: > 10 µM
Second compound 0.00316 µM, first compound 0.0316 µM
  viability, T/C: 107%
Second compound 0.00316 µM, first compound 0.1 µM
  viability, T/C: 96.5%
Second compound 0.00316 µM, first compound 0.316 µM
  viability, T/C: 107%
Second compound 0.00316 µM, first compound 1 µM
  viability, T/C: 97.6%
Second compound 0.00316 µM, first compound 3.16 µM
  viability, T/C: 110%
Second compound 0.00316 µM, first compound 10 µM
  viability, T/C: 83.4%
Second compound 0.01 µM, first compound 0.0316 µM
  viability, T/C: 99.6%
Second compound 0.01 µM, first compound 0.1 µM
  viability, T/C: 109%
Second compound 0.01 µM, first compound 0.316 µM
  viability, T/C: 97.2%
Second compound 0.01 µM, first compound 1 µM
  viability, T/C: 98.1%
Second compound 0.01 µM, first compound 3.16 µM
  viability, T/C: 94.8%
Second compound 0.01 µM, first compound 10 µM
  viability, T/C: 87.1%
Second compound 0.0316 µM, first compound 0.0316 µM
  viability, T/C: 103%
Second compound 0.0316 µM, first compound 0.1 µM
  viability, T/C: 107%
Second compound 0.0316 µM, first compound 0.316 µM
  viability, T/C: 102%
Second compound 0.0316 µM, first compound 1 µM
  viability, T/C: 101%
Second compound 0.0316 µM, first compound 3.16 µM
  viability, T/C: 90.5%
Second compound 0.0316 µM, first compound 10 µM
  viability, T/C: 78.5%
Second compound 0.1 µM, first compound 0.0316 µM
  viability, T/C: 93%
Second compound 0.1 µM, first compound 0.1 µM
  viability, T/C: 94.8%
Second compound 0.1 µM, first compound 0.316 µM
  viability, T/C: 102%
Second compound 0.1 µM, first compound 1 µM
  viability, T/C: 102%
Second compound 0.1 µM, first compound 3.16 µM
  viability, T/C: 88%
Second compound 0.1 µM, first compound 10 µM
  viability, T/C: 79.2%
Second compound 0.316 µM, first compound 0.0316 µM
  viability, T/C: 83.4%
Second compound 0.316 µM, first compound 0.1 µM
  viability, T/C: 79.1%
Second compound 0.316 µM, first compound 0.316 µM
  viability, T/C: 93%
Second compound 0.316 µM, first compound 1 µM
  viability, T/C: 75.5%
Second compound 0.316 µM, first compound 3.16 µM
  viability, T/C: 84.3%
Second compound 0.316 µM, first compound 10 µM
  viability, T/C: 68%
Second compound 1 µM, first compound 0.0316 µM
  viability, T/C: 69.7%
Second compound 1 µM, first compound 0.1 µM
  viability, T/C: 67.5%
Second compound 1 µM, first compound 0.316 µM
  viability, T/C: 72.1%
Second compound 1 µM, first compound 1 µM
  viability, T/C: 63.7%
Second compound 1 µM, first compound 3.16 µM
  viability, T/C: 75.4%
Second compound 1 µM, first compound 10 µM
  viability, T/C: 68%
